According to ChEMBL document CHEMBL6177959, “Design, synthesis and evaluation of novel carboline-triazole hybrids as promising antimalarial agents” (Eur J Med Chem, 2025):
Calls of active or inactive are those of the source. The rule behind the calls is not given here.

Key:
Plasmodium falciparum [1] = test: Antimalarial activity against chloroquine-sensitive Plasmodium falciparum 3D7 infected in human erythrocytes assessed as reduction in parasite growth incubated for 72 hrs by SYBR green dye fluorimetric assay; format: functional, organism-based; details: 3D7, Erythrocyte
Plasmodium falciparum [2] = test: Antimalarial activity against […] infected in human erythrocytes assessed as reduction in parasite growth incubated for 72 hrs by SYBR green dye fluorimetric assay; format: functional, organism-based; details: K1, Erythrocyte
[3] = Resistance index, ratio of IC50 for antimalarial activity against […] infected in human erythrocytes to IC50 for antimalarial activity against chloroquine-sensitive Plasmodium falciparum 3D7 infected in erythrocytes; format: functional
[4] = Cytotoxicity against human HepG2 cells; format: toxicity, cell-based
[5] = Selectivity index, ratio of CC50 for cytotoxicity against human HepG2 cells to IC50 for antimalarial activity against chloroquine-sensitive Plasmodium falciparum 3D7 infected in human erythrocytes assessed as reduction in parasite growth incubated for 72 hrs by SYBR green dye fluorimetric assay; format: toxicity, cell-based; details: read-out: Ratio CC50/IC50
Plasmodium falciparum [6] = test: Antimalarial activity against […] infected in human erythrocytes assessed as inhibition of parasitic growth at 5 uM incubated for 72 hrs by SYBR green dye fluorimetric assay relative to control; format: functional, K1, Erythrocyte; set-up: scale not given: the % may be the effect or the level left
Plasmodium falciparum [7] = test: Induction of morphological changes in asexual blood stage Plasmodium falciparum assessed as appearance of fragmentation at 1 uM incubated for 24 hrs by Geimsa-staining based light microscopic analysis; format: functional, organism-based
Plasmodium falciparum [8] = test: Induction of morphological changes in asexual blood stage Plasmodium falciparum assessed as appearance of condensed cytoplasm at 1 uM incubated for 24 hrs by Geimsa-staining based light microscopic analysis; format: functional, organism-based
Plasmodium falciparum [9] = test: Induction of morphological changes in asexual blood stage Plasmodium falciparum assessed as appearance of compact structure at 1 uM incubated for 24 hrs by Geimsa-staining based light microscopic analysis; format: functional, organism-based
Plasmodium falciparum [10] = test: Induction of morphological changes in asexual blood stage Plasmodium falciparum assessed as lack of prominent periphery in trophozoites at 1 uM incubated for 24 hrs by Geimsa-staining based light microscopic analysis; format: functional, organism-based
Plasmodium falciparum [11] = test: Induction of morphological changes in asexual blood stage Plasmodium falciparum assessed as appearance of healthy rings at 1 uM incubated for 48 to 72 hrs by Geimsa-staining based light microscopic analysis; format: functional, organism-based; details: time 48-72 hrs
Plasmodium falciparum [12] = test: Induction of morphological changes in asexual blood stage Plasmodium falciparum assessed as appearance of schizonts at 1 uM incubated for 48 to 72 hrs by Geimsa-staining based light microscopic analysis; format: functional, organism-based; details: time 48-72 hrs
Plasmodium berghei = test: Antimalarial activity against GFP-luciferase expressing liver stage Plasmodium berghei sporozoites infected in human HepG2 cells assessed as inhibition of parasitic growth by luminescence based analysis; format: functional, organism-based
Plasmodium yoelii [13] = test: Antimalarial activity against Plasmodium yoelii N67 infected in female Swiss mouse model assessed as reduction in parasitic growth at 100 mg/kg, po administered for 3 days and measured on day 28 by Giemsa staining based analysis; format: functional, organism-based; details: time 28.0 day
Plasmodium yoelii [14] = test: Antimalarial activity against Plasmodium yoelii N67 infected in female Swiss mouse model assessed as inhibition of parasitic growth at 100 mg/kg, po administered for 4 days and measured on day 28 by Giemsa staining based analysis; format: functional, organism-based; details: time 4.0 day
Plasmodium yoelii [15] = test: Antimalarial activity against Plasmodium yoelii N67 infected in female Swiss mouse model assessed as inhibition of parasitic growth at 100 mg/kg, po measured on day 7 relative to control; format: functional; set-up: scale not given: the % may be the effect or the level left; details: time 7 day
Plasmodium yoelii [16] = test: Antimalarial activity against Plasmodium yoelii N67 infected in female Swiss mouse model assessed as inhibition of parasitic growth at 100 mg/kg, po measured on day 10 relative to control; format: functional; set-up: scale not given: the % may be the effect or the level left; details: time 10 day
Plasmodium yoelii [17] = test: Antimalarial activity against Plasmodium yoelii N67 infected in female Swiss mouse model assessed as mean survival time at 100 mg/kg, po measured on day 17 relative to control; format: functional; details: N67, 408 h, time 17 day
Plasmodium yoelii [18] = test: Antimalarial activity against Plasmodium yoelii N67 infected in female Swiss mouse model assessed as mean survival time at 100 mg/kg, po measured on day 24 relative to control; format: functional; details: N67, 576 h, time 24 day
Plasmodium yoelii [19] = test: Antimalarial activity against Plasmodium yoelii N67 infected in female Swiss mouse model assessed as mean survival time at 100 mg/kg administered orally (reference value: 11 days); format: functional; details: route po
[20] = Volume of distribution in male Swiss mouse at 100 mg/kg, po by LC-MS/MS analysis; format: ADME, organism-based; details: in vivo
[21] = Half life in male Swiss mouse at 100 mg/kg, po by LC-MS/MS analysis; format: ADME, organism-based; details: in vivo
[22] = Cmax in male Swiss mouse at 100 mg/kg, po by LC-MS/MS analysis; format: ADME, organism-based; details: in vivo
[23] = Tmax in male Swiss mouse at 100 mg/kg, po by LC-MS/MS analysis; format: ADME, organism-based; details: in vivo
[24] = Stability of the compound in simulated physiological fluid at pH 7.4 assessed as compound remaining measured after 120 mins by HPLC analysis relative to control; format: physicochemical; details: read-out: Stability
[25] = Stability of the compound in simulated intestinal fluid at pH 6.8 assessed as compound remaining measured after 120 mins by HPLC analysis relative to control; format: physicochemical; details: read-out: Stability
[26] = Stability of the compound in mouse plasma assessed as compound remaining measured after 120 mins by HPLC analysis relative to control; format: ADME, cell-free; details: read-out: Stability
[27] = Clearance in male Swiss mouse at 100 mg/kg, po by LC-MS/MS analysis; format: ADME, organism-based; details: in vivo
[28] = AUC in male Swiss mouse at 100 mg/kg, po by LC-MS/MS analysis; format: ADME, organism-based; details: in vivo
[29] = MRT in male Swiss mouse at 100 mg/kg, po by LC-MS/MS analysis; format: ADME, organism-based; details: in vivo
Plasmodium falciparum [30] = test: Antimalarial activity against Plasmodium falciparum 3D7; format: functional, organism-based
Plasmodium falciparum [31] = test: Antimalarial activity against Plasmodium falciparum W2; format: functional, organism-based

## O=C(NCc1cn(-c2cccc(C(F)(F)F)c2)nn1)c1cc2c([nH]c3ccccc32)c(-c2ccc(F)cc2)n1
Plasmodium falciparum [1]
  IC50: 0.84 µM
Plasmodium falciparum [2]
  IC50: 0.4 µM
[3]
  Ratio IC50: 0.48
[4]
  CC50: 195 µM
[5]
  selectivity ratio at 72 h: 232
Plasmodium falciparum [6]
  Activity: 95.63%
Plasmodium falciparum [7]
  Activity: Active; Irreversible Structural Deformations Observed
Plasmodium falciparum [8]
  Activity: Active; Irreversible Structural Deformations Observed
Plasmodium falciparum [9]
  Activity: Active; Irreversible Structural Deformations Observed
Plasmodium falciparum [10]
  Activity: Active; Irreversible Structural Deformations Observed
Plasmodium falciparum [11]
  Activity: inactive
Plasmodium falciparum [12]
  Activity: inactive
Plasmodium berghei
  IC50: 5.88 µM
Plasmodium yoelii [13]
  Activity: Active
Plasmodium yoelii [14]
  Activity: Moderate_effect
Plasmodium yoelii [15]
  Activity: 42.55%
Plasmodium yoelii [16]
  Activity: 35.93%
Plasmodium yoelii [17]
  survival at 100 mg/kg: 60%
Plasmodium yoelii [18]
  survival at 100 mg/kg: 20%
Plasmodium yoelii [19]
  MST: 17 days
[20]
  Vd: 4.97207 L/kg
[21]
  t1/2: 3.74 h
[22]
  Cmax: 15.17 ng/mL
[23]
  Tmax: 4 h
[24]
  remaining at 2 h: ≥ 60%
[25]
  remaining at 2 h: ≥ 60%
[26]
  remaining at 2 h: ≥ 60%
[27]
  CL: 15.324 mL/min/kg
[28]
  AUC: 112 µg·h/mL
[29]
  MRT: 7.3 h

## Clc1ccc(-n2cc(-c3cncc4ccccc34)nn2)cc1
Plasmodium falciparum [30]
  IC50: 36.9 µM

## COc1cc(-c2nccc3c2[nH]c2ccccc23)cc(OC)c1OC
Plasmodium falciparum [31]
  IC50: 0.51 µM
